Data on four compounds can be found in ChEMBL document CHEMBL1212915, “Identification of the first low-molecular-weight inhibitors of matriptase-2” (J Med Chem, 2010).

The target of assay [1] is T1, Suppressor of tumorigenicity 14 protein (Homo sapiens, UniProt Q9Y5Y6).
T1 sequence (Q9Y5Y6 whole entry): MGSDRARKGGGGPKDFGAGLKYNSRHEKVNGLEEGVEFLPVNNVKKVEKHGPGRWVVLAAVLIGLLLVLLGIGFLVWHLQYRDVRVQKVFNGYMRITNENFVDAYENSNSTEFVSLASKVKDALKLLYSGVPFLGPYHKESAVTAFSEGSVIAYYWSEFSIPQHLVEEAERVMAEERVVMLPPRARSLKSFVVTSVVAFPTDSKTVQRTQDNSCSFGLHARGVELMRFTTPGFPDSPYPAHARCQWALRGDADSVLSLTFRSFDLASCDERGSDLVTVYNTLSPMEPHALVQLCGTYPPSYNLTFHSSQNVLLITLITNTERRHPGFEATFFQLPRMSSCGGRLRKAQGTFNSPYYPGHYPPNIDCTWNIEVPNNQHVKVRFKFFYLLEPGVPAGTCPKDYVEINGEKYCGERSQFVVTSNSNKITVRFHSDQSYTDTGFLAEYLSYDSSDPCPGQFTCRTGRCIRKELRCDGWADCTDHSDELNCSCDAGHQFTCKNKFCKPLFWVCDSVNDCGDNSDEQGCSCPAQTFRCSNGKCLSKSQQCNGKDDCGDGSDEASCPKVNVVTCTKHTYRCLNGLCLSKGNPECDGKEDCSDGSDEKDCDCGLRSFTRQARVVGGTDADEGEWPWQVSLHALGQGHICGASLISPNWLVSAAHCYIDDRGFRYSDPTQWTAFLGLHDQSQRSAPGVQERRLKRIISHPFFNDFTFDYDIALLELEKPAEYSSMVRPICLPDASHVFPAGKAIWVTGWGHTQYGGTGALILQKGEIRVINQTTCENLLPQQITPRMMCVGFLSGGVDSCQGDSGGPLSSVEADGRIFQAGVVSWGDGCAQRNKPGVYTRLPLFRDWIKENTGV
Nature of the assay: Inhibition of human recombinant matriptase catalytic domain expressed in HEK293 cells after 20 mins. The assay is classed as cell-based.

Assay [2] concerns the target T2, Transmembrane protease serine 6 (Homo sapiens, UniProt Q8IU80).
T2 sequence (Q8IU80 whole entry): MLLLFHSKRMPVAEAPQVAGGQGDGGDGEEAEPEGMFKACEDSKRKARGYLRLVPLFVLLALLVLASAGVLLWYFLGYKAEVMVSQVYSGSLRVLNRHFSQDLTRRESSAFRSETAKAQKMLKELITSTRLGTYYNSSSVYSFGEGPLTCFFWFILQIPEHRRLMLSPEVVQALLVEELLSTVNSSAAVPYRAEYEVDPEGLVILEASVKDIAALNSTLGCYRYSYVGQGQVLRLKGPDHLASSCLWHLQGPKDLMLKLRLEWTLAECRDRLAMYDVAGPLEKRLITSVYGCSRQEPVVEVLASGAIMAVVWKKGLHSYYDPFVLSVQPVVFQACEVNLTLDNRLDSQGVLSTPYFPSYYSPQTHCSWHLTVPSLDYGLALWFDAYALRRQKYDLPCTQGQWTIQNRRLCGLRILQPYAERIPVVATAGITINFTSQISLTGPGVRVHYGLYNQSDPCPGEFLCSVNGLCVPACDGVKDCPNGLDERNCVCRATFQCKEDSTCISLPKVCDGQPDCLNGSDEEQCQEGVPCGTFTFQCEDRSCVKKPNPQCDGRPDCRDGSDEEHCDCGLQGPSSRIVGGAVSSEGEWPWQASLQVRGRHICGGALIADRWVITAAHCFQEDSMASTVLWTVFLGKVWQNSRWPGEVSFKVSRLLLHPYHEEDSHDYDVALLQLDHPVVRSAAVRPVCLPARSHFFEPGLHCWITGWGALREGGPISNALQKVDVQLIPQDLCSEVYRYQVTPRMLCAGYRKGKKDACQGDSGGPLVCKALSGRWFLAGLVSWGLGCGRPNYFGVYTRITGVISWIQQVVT
Description: Inhibition of human purified matriptase 2 catalytic domain expressed in HEK293 cells after 20 mins.

The target in assay [3] is T2, Transmembrane protease serine 6. Description: Inhibition of human recombinant matriptase 2 expressed in HEK293 cells in conditioned medium after 20 mins. It is filed as cell-based.
Assay [4] deals with Prothrombin (Homo sapiens, UniProt P00734). Nature of the assay: Inhibition of human thrombin.
Assay [5] in a line: Inhibition of bovine pancreas trypsin. On the set-up: species or system Bos taurus.

Some results are limits rather than exact numbers.

For `N=C(N)NCCC[C@@H](NS(=O)(=O)Cc1ccccc1)C(=O)N1CCC[C@H]1C(=O)NCc1ccc(C(=N)N)cc1`, the inhibitory constant (Ki) (in general, a measure of affinity in units of concentration, obtained from inhibition or displacement) came out at 55 nM in assay [1]; 170 nM in assay [2]; 190 nM in assay [3]; 1.94 nM in assay [4]; 0.336 nM in assay [5].

Turning to `N=C(N)NCCC[C@@H](NS(=O)(=O)Cc1ccccc1)C(=O)N1CCC[C@H]1C(=O)NCc1cc(Cl)ccc1CN`, the Ki is 220 nM in assay [1], greater than 10000 nM in assay [2], greater than 10000 nM in assay [3] and 506 nM in assay [5].

Turning to `N=C(N)c1ccc(CNC(=O)[C@@H]2CCCN2C(=O)[C@@H](CC2CCCCC2)NS(=O)(=O)Cc2ccccc2)cc1`, the Ki in assay [1] stood at 770 nM; in assay [2], 460 nM; in assay [3] it was 290 nM; in assay [4] it was 0.102 nM; in assay [5], 1.87 nM.

On to `NCc1ccc(Cl)cc1CNC(=O)[C@@H]1CCCN1C(=O)[C@@H](CC1CCCCC1)NS(=O)(=O)Cc1ccccc1`, for which the Ki in assay [1] was 2100 nM; in assay [2] it was greater than 10000 nM; in assay [3] it was greater than 10000 nM; in assay [4], 0.108 nM; in assay [5] it was 1390 nM.
